# Test results from patent US20230286973A1, “PROTEIN SECRETION INHIBITORS” (KEZAR LIFE SCIENCES, priority 2020, published 2023).
# Columns and labels:
# [1] = test system: PD1-ss+10aa/Gaussia Luciferase; assay: Dox-Induced PD1-ss-Gluc Assay; type: cell-based; conditions: 24 hr Dox induction; 293FRT/TO cells; mean; read-out: 24 hr Dox Inducible PD1ssGluc 293FRT/TO: Mean IC50
# Outline: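 The cell line was made by transfecting Flp-In 293 T-REx cells with a PD1 signal sequence+10aa–Gaussia luciferase fusion under T-REx control and selecting with hygromycin and blasticidin. Cells were seeded, and next day compound plus doxycycline was added at 37 °C, 5% CO2.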
# [2] = test system: TNFα-FL/Gaussia Luciferase; assay: Dox Induced TNFα-FL-Gluc Assay; type: cell-based; conditions: for IC50: 24 hr Dox induction, 293FRT/TO cells, mean, read-out: 24 hr Dox Inducible TNFaFLGluc 293FRT/TO: Mean IC50; for 24 hr Dox Inducible TNFaFLGluc 293FRT/TO: TNF/PD1: ratio of TNFaFLGluc IC50 to PD1ssGluc IC50, '<=>' given where both are I.A.
# Outline: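 Flp-In 293 T-REx cells stably expressing full-length TNFα (aa 1-233) fused at its C-terminus to Gaussia luciferase under tetracycline-regulated control were plated the day before assay. Compound dilutions in DMSO/media containing doxycycline were added and incubated at 37 °C, 5% CO2. Unspecified stereochemistry denotes stereoisomer mixtures.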
# [3] = test system: HER3-ss+4aa/Gaussia Luciferase; assay: Dox-Induced Her3-ss-Gluc Assay; type: cell-based; conditions: 24 hr Dox induction; 293FRT/TO cells; mean; read-out: 24 hr Dox Inducible Her3(ss + 4)Gluc 293FRT/TO: Mean IC50
# Outline: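 Stable Flp-In 293 T-REx line expressing Gaussia luciferase fused to the HER3 signal sequence plus 4 amino acids under tetracycline-regulated (T-REx) control. Cells plated the day before, then treated with compound dilutions in DMSO/media containing doxycycline and incubated at 37° C., 5% CO2.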
# [4] = test system: IL-2-FL/Gaussia Luciferase; assay: Dox Induced IL2-FL-Gluc Assay; type: cell-based; conditions: for IC50: 24 hr Dox induction, 293FRT/TO cells, mean, read-out: 24 hr Dox Inducible IL2FLGluc 293FRT/TO: Mean IC50; for 24 hr Dox Inducible IL2FLGluc 293FRT/TO: IL2/PD1: ratio of IL2FLGluc IC50 to PD1ssGluc IC50, '<=>' given where both are I.A.
# Outline: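 Flp-In 293 T-REx cells stably carrying doxycycline-inducible full-length IL-2 (aa 1-153) fused at its C-terminus to Gaussia luciferase, selected with hygromycin and blasticidin. Cells were plated the day before, then treated with compounds in DMSO/media containing doxycycline at 37° C, 5% CO2.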
# [5] = test system: multiple myeloma cell line NCI-H929; assay: H929 Cell Viability Assay; type: cell-based, human; conditions: Homo sapiens, NCI-H929, 48 h, NCI-H929 cells, Celltiter-Glo
# Outline: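 NCI-H929 cells, resuspended in RPMI 1640 with 10% FBS and 2 mM glutamine, were treated with compound dilutions in DMSO/media and incubated 48 hours at 37° C, 5% CO2. Viability was read by CellTiter-Glo luminescence. Compounds drawn without stereochemistry were tested as stereoisomer mixtures.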
# [6] = test system: multiple myeloma cell line U266B1; assay: U266 Cell Viability Assay; type: cell-based, human; conditions: Homo sapiens, U-266, 48 h, U266B1 cells, Celltiter-Glo
# Outline: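 Cells grown in RPMI 1640 with 10% FBS, 2 mM glutamine and penicillin/streptomycin were exposed to compound dilutions in DMSO/media for 48 hours at 37° C., 5% CO2. Viability was read by CellTiter-Glo luminescence. Undefined stereocentres mean data for stereoisomer mixtures.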
# [7] = Liver Microsome Stability Assay (rat); conditions: rat liver microsomes, with NADPH, 1.0 uM compound
# Experimental: (§1) Stability of a compound was assessed in the presence of liver microsomes from various sources—mouse, rat, monkey and human liver microsomes. 1.0 uM compound, 0.4% DMSO in 0.1 M Potassium Phosphate with 1.0 mg/mL liver microsomes, were incubated at 37° C. with or without 1 mM NADPH. The samples were quenched at 0, and 30 minutes.
# [8] = Liver Microsome Stability Assay (mouse); conditions: mouse liver microsomes, with NADPH, 1.0 uM compound
# Experimental: as §1
# [9] = Liver Microsome Stability Assay (human); conditions: human liver microsomes, with NADPH, 1.0 uM compound
# Experimental: as §1
# [10] = Liver Microsome Stability Assay (monkey); conditions: monkey liver microsomes, with NADPH, 1.0 uM compound
# Experimental: as §1
SMILES,IC50 [1],IC50 [2],24 hr Dox Inducible TNFaFLGluc 293FRT/TO: TNF/PD1 [2],IC50 [3],IC50 [4],24 hr Dox Inducible IL2FLGluc 293FRT/TO: IL2/PD1 [4],EC50 [5],EC50 [6],Liver Microsome Stability (Multiple Species): Rat - % Remaining after 30 min w/NADPH [7],Liver Microsome Stability (Multiple Species): Mouse - % Remaining after 30 min w/NADPH [8],Liver Microsome Stability (Multiple Species): Human - % Remaining after 30 min w/NADPH [9],Liver Microsome Stability (Multiple Species): Monkey - % Remaining after 30 min w/NADPH [10]
"CC(C#N)CCn1cccc1C(=O)Nc1nc([C@H]2CCCN2c2ccccc2)cs1 (stereo partly drawn) [Compound C89, 1-(3-cyanobutyl)-N-(4-((R)-1-phenylpyrrolidin-2-yl)thiazol-2-yl)-1H-pyrrole-2-carboxamide]",1.18 µM,14.5 µM,12.3,1.79 µM,2.86 µM,2.4,> 25 µM,> 25 µM,5.16%,16.5%,24%,0.31%
"CC(CCC#N)n1cccc1C(=O)Nc1nc([C@H]2CCCN2c2ccccc2)cs1 (stereo partly drawn) [Compound C90, 1-(4-cyanobutan-2-yl)-N-(4-((R)-1-phenylpyrrolidin-2-yl)thiazol-2-yl)-1H-pyrrole-2-carboxamide]",1.65 µM,16.1 µM,9.76,2.39 µM,4.01 µM,2.4,> 25 µM,> 25 µM,7.22%,1.54%,1.77%,1.77%
"O=C(Nc1nc([C@H]2CCCN2c2ccc(C(F)(F)F)cc2)cs1)c1cccn1CC1CCOCC1 [Compound C91, (R)-1-((tetrahydro-2H-pyran-4-yl)methyl)-N-(4-(1-(4-(trifluoromethyl)phenyl)pyrrolidin-2-yl)thiazol-2-yl)-1H-pyrrole-2-carboxamide]",0.0934 µM,1.24 µM,13.3,0.127 µM,0.345 µM,3.7,4.21 µM,> 25 µM,41.8%,88.3%,67.8%,28.2%
"O=C(Nc1nc([C@H]2CCCN2c2ccccc2)cs1)c1cccn1CCCC1CCOC1 (stereo partly drawn) [Compound C92, N-(4-((R)-1-phenylpyrrolidin-2-yl)thiazol-2-yl)-1-(3-(tetrahydrofuran-3-yl)propyl)-1H-pyrrole-2-carboxamide]",2.21 µM,24.5 µM,11.1,3.01 µM,5.55 µM,2.5,22 µM,> 25 µM,3.9%,15.8%,7.96%,5.09%
"N#CCc1ccccc1Cn1cccc1C(=O)Nc1nc([C@H]2CCCN2c2ccccc2)cs1 [Compound C93, (R)-1-(2-(cyanomethyl)benzyl)-N-(4-(1-phenylpyrrolidin-2-yl)thiazol-2-yl)-1H-pyrrole-2-carboxamide]",4.27 µM,> 25 µM,>5.86,1.08 µM,1.63 µM,0.38,> 25 µM,> 25 µM,1.23%,16.3%,3.12%,6.79%
